The subject of test [1] is SK-Br3 breast cancer cells. Briefly: MTT cytotoxicity assay, SK-Br3 breast cancer cells. Conditions: for IC50: MTT, 48 h, read-out: IC50, growth inhibition, SK-Br3. Type of test: cell-based, human.
In test [2] the test system is PARP. The test can be described thus: Immunoblot analysis of PARP cleavage in SK-Br3 cells. The settings on record: for 89 KDa product of PARP cleavage: SK-Br3 cells, 30 μM, 12, 24 and 48 h. Type of test: cell-based, human. How it is done: (§1) Following the treatment of SK-Br3 cells with the studied compound at the desired concentrations and time intervals, cells were harvested by treatment with trypsin-EDTA solution, washed twice with PBS and stored at −80° C. The cells were lysed in lysis buffer (1 mM EDTA, 150 mM NaCl, 100 μg/mL PMSF and 50 mM Tris-HCl, pH 7.5) and kept at 4° C. while they were routinely mixed every 2 min on the vortex during 30 min. A sample was taken for measurement of protein content by a BioRad assay (Bio-Rad Laboratories). Equal amounts of protein were heated in sodium dodecyl sulphate (SDS) sample buffer (Laemmli) for 5 min at 95° C., separated on a 3-8% SDS-polyacrylamide gel (FASN, p185^HER2/neu, phospho-p185^HER2/neu) or 4-12% SDS-polyacrylamide gel (AKT, phospho-AKT, ERK1/2, phospho-ERK1/2 and PARP) and transferred onto nitrocellulose membranes. The membranes were incubated for 1 h at room temperature in blocking buffer (2.5% powdered-skim milk in TBS-T [10 mM Tris-HCl pH 8.0, 150 mM NaCl and 0.05% Tween-20]) to prevent non-specific antibody binding. The primary antibody used was a monoclonal antibody. Antibody dilution was prepared in blocking solution and blots were incubated with monoclonal antibody overnight at 4° C. […] Blots were re-probed with an antibody for β-actin to control for protein loading and transfer.
Western blot analysis for poly-ADP-ribose polymerase (PARP) was performed on SK-Br3 cells exposed for 12, 24 and 48 h to compound f (30 μM) and compound i (30 μM). Apoptosis and induction of caspase activity was confirmed by Western blotting analysis showing cleavage of PARP.
(In general: In western blotting, separated proteins are transferred to a membrane and probed.)

The subject of test [3] is HER2. Briefly: Immunoblot analysis of p185HER2/neu and phospho-p185HER2/neu in SK-Br3 cells. Type of test: cell-based, human. Conditions: for level of total HER2 / expression levels of p-HER2 proteins / levels of p-HER2 proteins: SK-Br3, 30 μM; for level of total HER2: Western blotting or HER2-specific ELISA; for expression levels of p-HER2 proteins: within 2 h after exposure; for levels of p-HER2 proteins: within 6 h after treatment; for active form of oncoprotein HER2: within 2 h after treatment. How it is done:
as §1
We have examined the time-dependent effects of compound f (30 μM) and compound i (30 μM) on HER2, AKT and ERK1/2 activation.

Test [4] has as its target T1, FASN (Homo sapiens, UniProt P49327).
T1 construct: endogenous in cells; host or cells: SK-Br3 breast cancer cells
The test can be described thus: Fatty acid synthase activity assay in SK-Br3 cells (NADPH oxidation, particle-free supernatants). The settings on record: for inhibition of FASN activity (in words): SK-Br3 cells treated 6, 12 and 24 hours; for FASN activity, % of control cells: SK-Br3 cells, 24 h exposure. Further details: FASN activity, % of control cells / FASN activity reduced to / reduction of FASN activity: concentration or dose not given beside the values. It is filed as cell-based.

Test [5] relates to AKT. Briefly: Immunoblot analysis of AKT and phospho-AKT in SK-Br3 cells. Type of test: cell-based, human. Conditions: for time after treatment at which a marked decrease of p-AKT was observed / expression levels of p-AKT proteins: SK-Br3, 30 μM; for expression levels of p-AKT proteins: 6 hours after treatment; for active form of Akt: within 2 h after treatment. How it is done: as §1

In test [6] the test system is ERK1/2. The test can be described thus: Immunoblot analysis of ERK1/2 and phospho-ERK1/2 in SK-Br3 cells. Type of test: cell-based, human. Conditions: for activation of p-ERK1/2 proteins: SK-Br3, 30 μM, 6 h after treatment; for active form of ERK1/2: within 2 h after treatment. The procedure: as §1

Each structure is given as a SMILES string. Entries after “also recorded” stand apart in the source; their conditions may differ. Like-named read-outs stand apart in the source and are kept apart here.

T1 sequence (P49327 whole entry): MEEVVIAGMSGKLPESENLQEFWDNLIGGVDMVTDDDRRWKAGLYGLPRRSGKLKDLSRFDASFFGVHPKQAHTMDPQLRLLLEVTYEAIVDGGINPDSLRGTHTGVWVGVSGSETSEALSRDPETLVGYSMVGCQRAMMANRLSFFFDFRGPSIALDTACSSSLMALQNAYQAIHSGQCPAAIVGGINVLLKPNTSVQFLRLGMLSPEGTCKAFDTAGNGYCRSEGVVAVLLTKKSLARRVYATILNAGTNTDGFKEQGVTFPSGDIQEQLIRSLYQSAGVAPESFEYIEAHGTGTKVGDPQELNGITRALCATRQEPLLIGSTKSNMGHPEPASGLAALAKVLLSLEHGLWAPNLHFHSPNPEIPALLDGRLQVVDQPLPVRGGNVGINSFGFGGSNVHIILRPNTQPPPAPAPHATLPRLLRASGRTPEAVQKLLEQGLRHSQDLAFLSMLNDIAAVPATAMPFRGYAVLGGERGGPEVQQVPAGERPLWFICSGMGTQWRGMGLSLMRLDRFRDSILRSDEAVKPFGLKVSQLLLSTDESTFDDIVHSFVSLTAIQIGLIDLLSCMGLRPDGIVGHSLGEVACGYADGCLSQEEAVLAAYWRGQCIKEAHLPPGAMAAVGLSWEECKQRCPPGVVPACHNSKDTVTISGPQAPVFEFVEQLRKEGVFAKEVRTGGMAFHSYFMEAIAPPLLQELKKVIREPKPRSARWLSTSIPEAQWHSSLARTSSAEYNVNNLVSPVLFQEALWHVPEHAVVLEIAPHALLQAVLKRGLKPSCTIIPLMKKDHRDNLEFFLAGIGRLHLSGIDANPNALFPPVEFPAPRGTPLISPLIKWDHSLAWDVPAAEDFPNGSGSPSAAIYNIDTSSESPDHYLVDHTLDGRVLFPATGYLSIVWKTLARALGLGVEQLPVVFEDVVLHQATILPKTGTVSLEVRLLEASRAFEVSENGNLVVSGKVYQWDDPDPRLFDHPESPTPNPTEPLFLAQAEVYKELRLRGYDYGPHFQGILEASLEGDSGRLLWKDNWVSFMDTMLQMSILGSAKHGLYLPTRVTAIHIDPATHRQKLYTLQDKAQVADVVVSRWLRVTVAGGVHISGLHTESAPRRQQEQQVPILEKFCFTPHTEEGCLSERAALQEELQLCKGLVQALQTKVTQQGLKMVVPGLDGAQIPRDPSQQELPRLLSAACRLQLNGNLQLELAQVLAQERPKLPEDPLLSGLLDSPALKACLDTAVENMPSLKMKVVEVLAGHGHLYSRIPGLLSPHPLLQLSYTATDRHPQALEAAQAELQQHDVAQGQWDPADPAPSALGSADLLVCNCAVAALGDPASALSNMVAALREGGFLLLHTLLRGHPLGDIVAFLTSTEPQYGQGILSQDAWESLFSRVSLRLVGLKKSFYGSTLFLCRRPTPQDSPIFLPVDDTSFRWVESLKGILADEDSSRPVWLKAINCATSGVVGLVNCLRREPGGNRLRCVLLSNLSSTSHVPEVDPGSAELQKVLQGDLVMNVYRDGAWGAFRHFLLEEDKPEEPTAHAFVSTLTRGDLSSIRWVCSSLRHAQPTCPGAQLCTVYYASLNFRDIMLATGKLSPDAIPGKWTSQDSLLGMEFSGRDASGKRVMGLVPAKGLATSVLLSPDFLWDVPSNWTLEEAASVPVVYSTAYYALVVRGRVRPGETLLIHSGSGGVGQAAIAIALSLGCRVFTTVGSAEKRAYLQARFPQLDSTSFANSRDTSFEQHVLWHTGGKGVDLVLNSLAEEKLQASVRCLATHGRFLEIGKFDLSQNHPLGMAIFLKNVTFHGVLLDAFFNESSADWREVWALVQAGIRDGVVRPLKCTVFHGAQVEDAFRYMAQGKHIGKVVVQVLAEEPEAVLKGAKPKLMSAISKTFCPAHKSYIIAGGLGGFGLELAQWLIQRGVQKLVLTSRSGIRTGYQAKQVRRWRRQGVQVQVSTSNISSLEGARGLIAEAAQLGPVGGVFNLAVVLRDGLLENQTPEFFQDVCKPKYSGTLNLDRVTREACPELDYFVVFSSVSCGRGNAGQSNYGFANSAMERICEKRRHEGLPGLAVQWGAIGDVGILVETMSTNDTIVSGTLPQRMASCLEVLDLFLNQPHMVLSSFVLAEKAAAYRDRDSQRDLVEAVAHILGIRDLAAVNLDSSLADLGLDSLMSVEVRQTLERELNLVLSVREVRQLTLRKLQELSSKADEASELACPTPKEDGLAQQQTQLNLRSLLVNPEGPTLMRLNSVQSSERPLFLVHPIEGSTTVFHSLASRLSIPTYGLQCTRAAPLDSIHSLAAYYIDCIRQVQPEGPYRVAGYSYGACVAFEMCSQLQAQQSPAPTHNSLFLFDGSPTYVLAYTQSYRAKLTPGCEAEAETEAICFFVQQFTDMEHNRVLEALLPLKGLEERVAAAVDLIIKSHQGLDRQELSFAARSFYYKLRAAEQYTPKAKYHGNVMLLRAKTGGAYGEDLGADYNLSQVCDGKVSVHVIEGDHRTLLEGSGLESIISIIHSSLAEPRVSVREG

By IC50 is commonly meant the concentration needed to halve the response being measured. For `O=C(Oc1ccc(OC(=O)c2cc(O)c(O)c(O)c2)c2ccccc12)c1cc(O)c(O)c(O)c1` [i, 1,4-bis[(3,4,5-trihydroxybenzoyl)oxy]naphthalene], in test [1], the “relative IC50 ratio of EGCG to compound” value was 5.4 and the IC50 is 28 µM. Moreover, the IC50 in test [1] (Homo sapiens, SK-BR-3, 48 h) is 28.7 ± 0.3 µM. For the same compound, in test [2], the “induction of apoptosis (cleavage of PARP)” value was “induced apoptosis” and the “89 KDa product of PARP cleavage” value is reported as “marked increase”. Also, in test [3], the “level of total HER2” value was “no significant change”, the “expression levels of p-HER2 proteins” value is listed as “markedly decreased”, the “levels of p-HER2 proteins” value is on record as “total decrease” and the “active form of oncoprotein HER2” value is “marked decrease”. Besides, in test [4], the “inhibition of FASN activity (in words)” value was “inhibit FASN activity; also recorded: decreased in a time-dependent manner” and the “FASN activity, % of control cells” value is 31±16%. Moreover, the “reduction of FASN activity” value in test [4] (after 6 h of cell exposure) is 50%. Moreover, the “reduction of FASN activity” value in test [4] (after 24 h of cell exposure) stood at 50%. Also, in test [5], the “time after treatment at which a marked decrease of p-AKT was observed” value is recorded as 12 h, the “expression levels of p-AKT proteins” value is “low decrease” and the “active form of Akt” value is “marked decrease”. In addition, in test [6], the “activation of p-ERK1/2 proteins” value was “marked decrease” and the “active form of ERK1/2” value is “marked decrease”.

With `O=C(Oc1cc(OC(=O)c2cc(O)c(O)c(O)c2)c2ccccc2c1)c1cc(O)c(O)c(O)c1` [f, 1,3-bis[(3,4,5-trihydroxybenzoyl)oxy]naphthalene], in test [1], the “relative IC50 ratio of EGCG to compound” value turned out to be 7.5 and the IC50 stood at 20 µM. Further, the IC50 in test [1] (Homo sapiens, SK-BR-3, 48 h) is 21.3 ± 6.7 µM. For the same compound, in test [2], the “induction of apoptosis (cleavage of PARP)” value is on record as “induced apoptosis” and the “89 KDa product of PARP cleavage” value is recorded as “marked increase”. In addition, in test [3], the “level of total HER2” value is given as “no significant change”, the “expression levels of p-HER2 proteins” value is “markedly decreased”, the “levels of p-HER2 proteins” value is reported as “total decrease” and the “active form of oncoprotein HER2” value is given as “marked decrease”. Besides, in test [4], the “inhibition of FASN activity (in words)” value was “inhibit FASN activity; also recorded: decreased in a time-dependent manner” and the “FASN activity, % of control cells” value worked out at 10±4%. In test [4] (after 6 h of cell exposure), the “reduction of FASN activity” value is listed as 50%. In test [4] (after 24 h of cell exposure), the “reduction of FASN activity” value was 50%. Also, in test [5], the “time after treatment at which a marked decrease of p-AKT was observed” value is recorded as 24 h, the “expression levels of p-AKT proteins” value is “low decrease” and the “active form of Akt” value is reported as “marked decrease”. Also, in test [6], the “activation of p-ERK1/2 proteins” value is “marked decrease” and the “active form of ERK1/2” value is “marked decrease”.

For the origin of these results see patent US20100190856A1, “Novel Polyhydroxylated Compounds as Fatty Acid Synthase (FASN) Inhibitors” (UNIVERSIDAD COMPLUTENSE DE MADRID, priority 2007, published 2010).
